Literature values as cited in patent US20070066584A1, “Amido compounds and their use as pharmaceuticals” (priority 2005, published 2007).

Target: T1, 11βHSD1 (Homo sapiens, UniProt P28845)
T1 construct: host or cells: healthy volunteers (eye; non-pigmented epithelial cells), in vivo
Conditions: healthy volunteers; after seven days of carbenoxolone treatment

T1 sequence (P28845 whole entry): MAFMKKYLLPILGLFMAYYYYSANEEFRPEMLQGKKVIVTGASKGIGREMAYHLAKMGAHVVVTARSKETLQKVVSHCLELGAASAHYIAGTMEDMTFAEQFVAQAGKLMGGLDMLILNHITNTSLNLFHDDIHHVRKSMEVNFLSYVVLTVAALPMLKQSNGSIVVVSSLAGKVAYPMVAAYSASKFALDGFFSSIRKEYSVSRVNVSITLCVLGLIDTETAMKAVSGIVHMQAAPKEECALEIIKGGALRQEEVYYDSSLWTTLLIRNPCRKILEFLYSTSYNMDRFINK

IOP reduced: 18%
Structure (SMILES): CC1(C)[C@@H](OC(=O)CCC(=O)O)CC[C@]2(C)[C@H]3C(=O)C=C4[C@@H]5C[C@@](C)(C(=O)O)CC[C@]5(C)CC[C@@]4(C)[C@]3(C)CC[C@@H]12 [carbenoxolone]
